This passage reports IC50 results from patent publication US20250340557A1, “PYRIMIDINE DERIVATIVE” (ASKA PHARMACEUTICAL CO., LTD., priority 2022, published 2025).

Usually IC50 stands for the concentration that inhibits the measured activity by half.

One assay addresses T1, human mPGES-1 (Homo sapiens, UniProt O14684).
T1 construct: made in house; host or cells: COS-1 cells (transient transfection; microsomal fraction used as enzyme)
T1 sequence (O14684 1-152): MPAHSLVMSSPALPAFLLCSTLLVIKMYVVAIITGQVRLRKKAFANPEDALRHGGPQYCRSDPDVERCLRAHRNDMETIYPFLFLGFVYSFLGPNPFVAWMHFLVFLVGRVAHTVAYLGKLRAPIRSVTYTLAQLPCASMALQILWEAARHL
Description: Test for mPGES-1 inhibitory activity (microsomal enzyme, PGE2 EIA). The class given is biochemical. As to conditions: microsomes from COS-1 cells transfected with human mPGES-1 cDNA; substrate PGH2 1 μM; 4° C., 4 minutes; PGE2 measured by EIA; read-out: h mPGES1 IC50. The essentials:
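IC50 values were derived from EIA-quantified PGE2 after a 4 min, 4 °C reaction with PGH2 at 1 μM final, stopped with ferric chloride/citric acid. Beforehand, compound (2% DMSO final) sat 15 min at 4 °C with human mPGES-1 microsomes from transiently transfected COS-1 cells. Buffer was sodium phosphate pH 7.2 containing 2.5 mM reduced glutathione and 1 mM EDTA.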
Consider `O=C(NCc1ccc(C(F)(F)F)c(-c2nc(C(F)(F)F)cc(=O)[nH]2)c1F)C1CCN(c2ccc3ccccc3n2)CC1` [Example 5, N-{2-fluoro-3-[6-oxo-4-(trifluoromethyl)-1,6-dihydropyrimidin-2-yl]-4-(trifluoromethyl)benzyl}-1-(quinolin-2-yl)piperidine-4-carboxamide], for which the IC50 was below 10 nM.

For the molecule `O=C(NCc1ccc(Cl)c(-c2nc(C(F)(F)F)cc(=O)[nH]2)c1F)C1CCN(c2ccc(C(F)(F)F)cn2)CC1` [Example 32, N-{4-chloro-2-fluoro-3-[6-oxo-4-(trifluoromethyl)-1,6-dihydropyrimidin-2-yl]benzyl}-1-[5-(trifluoromethyl)pyridin-2-yl]piperidine-4-carboxamide], the IC50 is below 1 nM.

On to `O=c1cc(C(F)(F)F)nc(-c2c(C(F)(F)F)ccc(CNC(=O)[C@H]3C[C@H](OCc4cccc(C(F)(F)F)c4)C3)c2F)[nH]1` [Example 144, trans-N-{2-fluoro-3-[6-oxo-4-(trifluoromethyl)-1,6-dihydropyrimidin-2-yl]-4-(trifluoromethyl)benzyl}-3-{[3-(trifluoromethyl)benzyl]oxy}cyclobutane-1-carboxamide], for which the IC50 is below 1 nM.

With `CCc1nc(-c2c(C(F)(F)F)ccc(CNC(=O)C3CCN(c4ccc(OC(F)(F)F)cc4)CC3)c2F)[nH]c(=O)c1F` [Example 80, N-[3-(4-ethyl-5-fluoro-6-oxo-1,6-dihydropyrimidin-2-yl)-2-fluoro-4-(trifluoromethyl)benzyl]-1-[4-(trifluoromethoxy)phenyl]piperidine-4-carboxamide], the IC50 was found to be 22 nM.

Take `O=c1cc(C(F)(F)F)nc(-c2c(C(F)(F)F)ccc(CNC(=O)[C@H]3C[C@H](OCc4cccc(Cl)c4)C3)c2F)[nH]1` [Example 138, trans-3-[(3-chlorobenzyl)oxy]-N-{2-fluoro-3-[6-oxo-4-(trifluoromethyl)-1,6-dihydropyrimidin-2-yl]-4-(trifluoromethyl)benzyl}cyclobutane-1-carboxamide]: the IC50 is below 1 nM.

Consider `O=c1cc(C(F)(F)F)nc(-c2c(C(F)(F)F)ccc(CNC(=O)[C@H]3C[C@H](OCc4ccccc4C(F)(F)F)C3)c2F)[nH]1` [Example 142, trans-N-{2-fluoro-3-[6-oxo-4-(trifluoromethyl)-1,6-dihydropyrimidin-2-yl]-4-(trifluoromethyl)benzyl}-3-{[2-(trifluoromethyl)benzyl]oxy}cyclobutane-1-carboxamide], for which the IC50 is below 1 nM.

With `O=c1cc(C(F)(F)F)nc(-c2c(C(F)(F)F)ccc(CNC(=O)[C@H]3C[C@H](OCc4ccc(Cl)cc4)C3)c2F)[nH]1` [Example 140, trans-3-[(4-chlorobenzyl)oxy]-N-{2-fluoro-3-[6-oxo-4-(trifluoromethyl)-1,6-dihydropyrimidin-2-yl]-4-(trifluoromethyl)benzyl}cyclobutane-1-carboxamide], the IC50 was found to be 1 nM.

Consider `N#Cc1ccc(N2CCC(C(=O)NCc3ccc(C(F)(F)F)c(-c4nc(C(F)(F)F)cc(=O)[nH]4)c3F)CC2)c(Cl)c1` [Example 75, 1-(2-chloro-4-cyanophenyl)-N-{2-fluoro-3-[6-oxo-4-(trifluoromethyl)-1,6-dihydropyrimidin-2-yl]-4-(trifluoromethyl)benzyl}piperidine-4-carboxamide], for which the IC50 is below 1 nM.

As to `O=C(NCc1ccc(C(F)(F)F)c(-c2nc(C(F)(F)F)cc(=O)[nH]2)c1F)C1CCN(c2ccc(C(F)(F)F)cn2)CC1` [Example 20, N-{2-fluoro-3-[6-oxo-4-(trifluoromethyl)-1,6-dihydropyrimidin-2-yl]-4-(trifluoromethyl)benzyl}-1-[5-(trifluoromethyl)pyridin-2-yl]piperidine-4-carboxamide], the IC50 was below 1 nM.

Consider `CCc1nc(-c2c(C(F)(F)F)ccc(CNC(=O)C3CCN(c4ccc(Cl)cn4)CC3)c2F)[nH]c(=O)c1F` [Example 57, 1-(5-chloropyridin-2-yl)-N-[3-(4-ethyl-5-fluoro-6-oxo-1,6-dihydropyrimidin-2-yl)-2-fluoro-4-(trifluoromethyl)benzyl]piperidine-4-carboxamide], for which the IC50 was below 1 nM.

As to `Cc1cc(=O)[nH]c(-c2c(C(F)(F)F)ccc(CNC(=O)C3CCN(c4ccc(Cl)c(F)c4)CC3)c2F)n1` [Example 95, 1-(4-chloro-3-fluorophenyl)-N-[2-fluoro-3-(4-methyl-6-oxo-1,6-dihydropyrimidin-2-yl)-4-(trifluoromethyl)benzyl]piperidine-4-carboxamide], the IC50 was below 1 nM.

Take `O=C(NCc1ccc(C(F)(F)F)c(-c2nc(C(F)(F)F)cc(=O)[nH]2)c1F)C1CCN(c2ccc(C(F)(F)F)cc2)CC1` [Example 63, N-{2-fluoro-3-[6-oxo-4-(trifluoromethyl)-1,6-dihydropyrimidin-2-yl]-4-(trifluoromethyl)benzyl}-1-[4-(trifluoromethyl)phenyl]piperidine-4-carboxamide]: the IC50 is 1.1 nM.

Staying with this assay, now noted: microsomes of COS-1 cells transfected with human mPGES-1 cDNA; PGH2 1 μM; 4° C., 4 minutes; PGE2 by EIA; read-out: h mPGES1 IC50.
On to `CCc1cc(=O)[nH]c(-c2c(C(F)(F)F)ccc(CNC(=O)[C@H]3C[C@H](OCc4ccc(Cl)cc4)C3)c2F)n1` [Example 197, trans-3-[(4-chlorobenzyl)oxy]-N-[3-(4-ethyl-6-oxo-1,6-dihydropyrimidin-2-yl)-2-fluoro-4-(trifluoromethyl)benzyl]cyclobutane-1-carboxamide], for which the IC50 worked out at 3.7 nM.

For `O=c1cc(C(F)(F)F)nc(-c2c(C(F)(F)F)ccc(CNC(=O)[C@H]3CC[C@H](c4ccc(Cl)cc4)CC3)c2F)[nH]1` [Example 279, trans-4-(4-chlorophenyl)-N-{2-fluoro-3-[6-oxo-4-(trifluoromethyl)-1,6-dihydropyrimidin-2-yl]-4-(trifluoromethyl)benzyl}cyclohexane-1-carboxamide], the IC50 was below 1 nM.

As for `Cc1nc(-c2c(C(F)(F)F)ccc(CNC(=O)[C@H]3C[C@H](OCc4ccc(F)cc4Cl)C3)c2F)[nH]c(=O)c1F` [Example 224, trans-3-[(2-chloro-4-fluorobenzyl)oxy]-N-[2-fluoro-3-(5-fluoro-4-methyl-6-oxo-1,6-dihydropyrimidin-2-yl)-4-(trifluoromethyl)benzyl]cyclobutane-1-carboxamide], the IC50 was below 1 nM.

Turning to `CCc1cc(=O)[nH]c(-c2c(C(F)(F)F)ccc(CNC(=O)[C@H]3C[C@H](OCc4ccc(F)cc4Cl)C3)c2F)n1` [Example 207, trans-3-[(2-chloro-4-fluorobenzyl)oxy]-N-[3-(4-ethyl-6-oxo-1,6-dihydropyrimidin-2-yl)-2-fluoro-4-(trifluoromethyl)benzyl]cyclobutane-1-carboxamide], the IC50 came to 9 nM.

`Cc1cc(=O)[nH]c(-c2c(C(F)(F)F)ccc(CNC(=O)[C@H]3C[C@H](OCc4cccc(F)c4)C3)c2F)n1` [Example 188, trans-N-[2-fluoro-3-(4-methyl-6-oxo-1,6-dihydropyrimidin-2-yl)-4-(trifluoromethyl)benzyl]-3-[(3-fluorobenzyl)oxy]cyclobutane-1-carboxamide]: the IC50 worked out at 10 nM.

On to `Cc1nc(-c2c(C(F)(F)F)ccc(CNC(=O)[C@H]3C[C@H](OCc4cccc(Cl)c4)C3)c2F)[nH]c(=O)c1F` [Example 213, trans-3-[(3-chlorobenzyl)oxy]-N-[2-fluoro-3-(5-fluoro-4-methyl-6-oxo-1,6-dihydropyrimidin-2-yl)-4-(trifluoromethyl)benzyl]cyclobutane-1-carboxamide], for which the IC50 is 11 nM.

Consider `O=c1cc(C(F)(F)F)nc(-c2c(C(F)(F)F)ccc(CNC(=O)[C@H]3C[C@@H](OCc4ccc(C(F)(F)F)cc4)C3)c2F)[nH]1` [Example 147, cis-N-{2-fluoro-3-[6-oxo-4-(trifluoromethyl)-1,6-dihydropyrimidin-2-yl]-4-(trifluoromethyl)benzyl}-3-{[4-(trifluoromethyl)benzyl]oxy}cyclobutane-1-carboxamide], for which the IC50 was below 1 nM.

On to `O=C(NCc1ccc(C(F)(F)F)c(-c2nc(-c3ccc(C(F)(F)F)cn3)cc(=O)[nH]2)c1F)C1CCN(c2ccc3nccn3n2)CC1` [Example 267, N-(2-fluoro-3-{6-oxo-4-[5-(trifluoromethyl)pyridin-2-yl]-1,6-dihydropyrimidin-2-yl}-4-(trifluoromethyl)benzyl)-1-(imidazo[1,2-b]pyridazin-6-yl)piperidine-4-carboxamide], for which the concentration for half-maximal inhibition (IC50) was below 1 nM.

Regarding `O=c1cc(C(F)(F)F)nc(-c2c(C(F)(F)F)ccc(CNC(=O)[C@H]3C[C@H](Oc4ccc(C(F)(F)F)cn4)C3)c2F)[nH]1` [Example 249, trans-N-{2-fluoro-3-[6-oxo-4-(trifluoromethyl)-1,6-dihydropyrimidin-2-yl]-4-(trifluoromethyl)benzyl}-3-{[5-(trifluoromethyl)pyridin-2-yl]oxy}cyclobutane-1-carboxamide], the IC50 is below 1 nM.

As to `CCc1nc(-c2c(C(F)(F)F)ccc(CNC(=O)[C@H]3C[C@H](OCc4ccccc4C(F)(F)F)C3)c2F)[nH]c(=O)c1F` [Example 232, trans-N-[3-(4-ethyl-5-fluoro-6-oxo-1,6-dihydropyrimidin-2-yl)-2-fluoro-4-(trifluoromethyl)benzyl]-3-{[2-(trifluoromethyl)benzyl]oxy}cyclobutane-1-carboxamide], the IC50 is below 1 nM.

As to `O=c1cc(C(F)F)nc(-c2c(C(F)(F)F)ccc(CNC(=O)[C@H]3C[C@H](OCc4ccc(F)c(Cl)c4)C3)c2F)[nH]1` [Example 176, trans-3-[(3-chloro-4-fluorobenzyl)oxy]-N-{3-[4-(difluoromethyl)-6-oxo-1,6-dihydropyrimidin-2-yl]-2-fluoro-4-(trifluoromethyl)benzyl}cyclobutane-1-carboxamide], the IC50 was below 1 nM.
